Among the data in patent publication US8853418B2, “Cyclopentylpyrazoles as N-type calcium channel blockers” (Janssen Pharmaceutica NV, priority 2012, dated 2014) are IC50 and inhibition values, retold here.

Structures are written as SMILES.

In the test the target is N-type calcium channel (α1B (Cav2.2), β3 and α2δ subunits) (Homo sapiens, UniProt Q00975). The test can be described thus: Functional Assay: Antagonism of N-Type Calcium Channel (FDSS calcium mobilization, KCl depolarization). Type of test: cell-based. The following applies: for IC50: HEK cell line, 50 mM KCl depolarization, six-point concentration-response, read-out: FDSS IC50. The protocol:
A stable cell line (HEK parent) co-expressing the α1B (Cav2.2), β3 and α2δ subunits of the N-type calcium channel subunits was used. These cells were routinely grown as monolayers in low glucose-containing Dulbecco's Modified Eagle Medium supplemented with 10% FBS, 2 mM L-glutamine, 100 I.U./mL penicillin, 100 μg/mL streptomycin, 400 μg/mL G418 and 200 μg/mL Zeocin (split ratio=1:5). Cells were maintained in 5% CO2 at 37° C. Compounds of Formula (I) were prepared as 10 mM stocks in DMSO from neat compound, if available. Otherwise, the 5 or 10 mM DMSO stock solutions provided in-house were used.
Calcium mobilization responses to KCl depolarization were evaluated by measuring the intensity of calcium-mediated fluorescent signal in the presence of BD Calcium Assay Dye (BD Biosciences, Franklin Lakes, N.J., U.S.A.), utilizing a Functional Drug Screening System (FDSS) by Hamamatsu Corporation (Bridgewater, N.J. U.S.A.).
Twenty-four hr prior to assay, cells were seeded in clear-base poly-D-lysine-coated 384-well plates (BD Biosciences) at a density of 5,000 cells per well in culture medium and grown overnight in 5% CO2 at 37° C. On the day of assay, growth media were removed, and cells were loaded with BD calcium assay dye (BD Biosciences) for 35 min at 37° C. under 5% CO2 and then for 25 min at room temp. Utilizing the FDSS, cells were exposed to representative compounds of Formula (I) at varying concentrations, and intracellular calcium was measured for 5 min prior to the addition of 50 mM KCl for an additional 3 min of measurement.
Calculations and Formulas
IC50 values for representative compounds of Formula (I) were determined from six-point concentration-response experiments and represent the concentration of said compound required to inhibit 50% of the maximal response. Maximal fluorescence intensity (FI) achieved upon addition of 50 mM KCl was exported from the FDSS software and further analyzed using GraphPad Prism 3.02 (Graph Pad Software Inc., San Diego, Calif., U.S.A.). Data were normalized to the maximum average counts from quadruplicate wells for each condition in the presence of 50 mM KCl and to the minimum average counts in the presence of buffer. Theoretical curves were generated using nonlinear regression curve-fitting analysis of either sigmoidal concentration-response or sigmoidal concentration-response (variable slope), and the IC50 values with the best-fit curve determined by GraphPad Prism were reported.
In general terms: Calcium assays in cells follow changes in intracellular calcium, usually with a dye or a luminescent sensor.

Chain of N-type calcium channel (α1B (Cav2.2), β3 and α2δ subunits) (Q00975 whole entry): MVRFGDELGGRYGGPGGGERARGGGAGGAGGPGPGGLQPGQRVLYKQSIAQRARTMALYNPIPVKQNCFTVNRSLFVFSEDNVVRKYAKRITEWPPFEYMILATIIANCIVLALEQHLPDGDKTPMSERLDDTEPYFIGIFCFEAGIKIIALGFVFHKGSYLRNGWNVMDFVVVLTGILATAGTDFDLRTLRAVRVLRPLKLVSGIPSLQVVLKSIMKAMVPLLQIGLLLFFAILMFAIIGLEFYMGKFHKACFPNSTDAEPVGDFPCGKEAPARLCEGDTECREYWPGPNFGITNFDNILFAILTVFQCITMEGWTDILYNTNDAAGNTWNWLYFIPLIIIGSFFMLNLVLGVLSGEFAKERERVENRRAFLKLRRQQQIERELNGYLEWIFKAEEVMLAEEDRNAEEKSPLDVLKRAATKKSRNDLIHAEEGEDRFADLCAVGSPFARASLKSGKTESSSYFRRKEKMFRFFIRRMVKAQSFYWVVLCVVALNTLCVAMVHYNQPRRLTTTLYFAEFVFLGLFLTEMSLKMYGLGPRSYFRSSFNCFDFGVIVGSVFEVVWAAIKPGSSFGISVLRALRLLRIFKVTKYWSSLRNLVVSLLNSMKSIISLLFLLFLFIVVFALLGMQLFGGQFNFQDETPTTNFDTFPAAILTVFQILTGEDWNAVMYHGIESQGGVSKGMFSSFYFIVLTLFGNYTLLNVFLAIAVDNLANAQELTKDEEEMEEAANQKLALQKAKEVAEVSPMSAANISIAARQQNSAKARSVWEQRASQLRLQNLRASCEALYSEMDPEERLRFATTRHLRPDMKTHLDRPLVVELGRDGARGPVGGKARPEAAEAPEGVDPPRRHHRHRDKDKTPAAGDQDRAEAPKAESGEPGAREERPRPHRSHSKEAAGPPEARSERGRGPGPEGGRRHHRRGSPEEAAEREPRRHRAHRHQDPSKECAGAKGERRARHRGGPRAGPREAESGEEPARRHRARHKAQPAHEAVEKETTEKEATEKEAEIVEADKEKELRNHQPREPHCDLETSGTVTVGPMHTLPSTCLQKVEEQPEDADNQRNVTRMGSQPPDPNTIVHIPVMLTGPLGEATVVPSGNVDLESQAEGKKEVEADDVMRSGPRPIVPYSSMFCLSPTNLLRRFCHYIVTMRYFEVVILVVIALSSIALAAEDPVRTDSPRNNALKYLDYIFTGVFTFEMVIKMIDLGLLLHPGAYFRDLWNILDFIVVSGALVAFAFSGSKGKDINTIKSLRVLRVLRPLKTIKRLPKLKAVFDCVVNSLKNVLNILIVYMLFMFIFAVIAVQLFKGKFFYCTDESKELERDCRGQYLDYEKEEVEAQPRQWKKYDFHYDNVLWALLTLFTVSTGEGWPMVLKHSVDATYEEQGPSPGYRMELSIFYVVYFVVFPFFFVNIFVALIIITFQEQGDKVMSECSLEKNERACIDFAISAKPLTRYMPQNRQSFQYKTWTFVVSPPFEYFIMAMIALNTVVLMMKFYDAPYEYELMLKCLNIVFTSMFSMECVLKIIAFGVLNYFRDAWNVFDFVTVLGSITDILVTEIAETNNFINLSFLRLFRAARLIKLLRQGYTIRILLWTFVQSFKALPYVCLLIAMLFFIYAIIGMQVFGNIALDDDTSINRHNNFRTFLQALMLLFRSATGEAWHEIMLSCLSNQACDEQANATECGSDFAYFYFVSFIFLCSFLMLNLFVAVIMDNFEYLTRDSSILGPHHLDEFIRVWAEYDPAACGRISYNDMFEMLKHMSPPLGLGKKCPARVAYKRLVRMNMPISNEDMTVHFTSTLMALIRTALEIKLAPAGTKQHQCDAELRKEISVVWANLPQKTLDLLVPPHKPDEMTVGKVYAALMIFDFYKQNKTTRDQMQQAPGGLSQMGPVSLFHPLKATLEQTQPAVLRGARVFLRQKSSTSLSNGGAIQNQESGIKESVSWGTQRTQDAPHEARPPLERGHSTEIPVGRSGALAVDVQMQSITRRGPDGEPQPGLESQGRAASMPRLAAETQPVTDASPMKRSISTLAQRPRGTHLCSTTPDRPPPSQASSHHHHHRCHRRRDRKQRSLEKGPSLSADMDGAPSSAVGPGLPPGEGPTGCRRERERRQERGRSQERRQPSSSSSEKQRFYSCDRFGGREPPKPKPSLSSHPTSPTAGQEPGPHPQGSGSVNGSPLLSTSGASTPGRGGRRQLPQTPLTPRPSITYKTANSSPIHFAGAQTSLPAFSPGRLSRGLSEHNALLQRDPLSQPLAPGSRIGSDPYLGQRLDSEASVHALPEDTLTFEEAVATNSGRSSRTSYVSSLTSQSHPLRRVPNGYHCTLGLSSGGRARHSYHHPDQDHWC
Chain of N-type calcium channel (α1B (Cav2.2), β3 and α2δ subunits) (P54284 whole entry partner): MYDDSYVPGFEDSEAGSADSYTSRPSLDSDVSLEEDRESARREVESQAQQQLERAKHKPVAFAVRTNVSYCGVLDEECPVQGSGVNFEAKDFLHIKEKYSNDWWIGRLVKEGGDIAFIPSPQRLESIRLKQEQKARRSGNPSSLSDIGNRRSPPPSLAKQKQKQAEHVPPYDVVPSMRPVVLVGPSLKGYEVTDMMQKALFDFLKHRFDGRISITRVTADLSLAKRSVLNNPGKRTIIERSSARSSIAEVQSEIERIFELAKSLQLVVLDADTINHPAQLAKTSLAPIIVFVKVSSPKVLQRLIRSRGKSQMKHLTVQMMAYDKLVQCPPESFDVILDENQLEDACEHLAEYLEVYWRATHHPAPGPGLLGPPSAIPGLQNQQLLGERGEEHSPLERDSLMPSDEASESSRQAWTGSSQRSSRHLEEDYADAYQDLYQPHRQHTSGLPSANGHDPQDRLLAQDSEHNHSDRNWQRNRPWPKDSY
Chain of N-type calcium channel (α1B (Cav2.2), β3 and α2δ subunits) (P54289 25-946 partner limits assumed): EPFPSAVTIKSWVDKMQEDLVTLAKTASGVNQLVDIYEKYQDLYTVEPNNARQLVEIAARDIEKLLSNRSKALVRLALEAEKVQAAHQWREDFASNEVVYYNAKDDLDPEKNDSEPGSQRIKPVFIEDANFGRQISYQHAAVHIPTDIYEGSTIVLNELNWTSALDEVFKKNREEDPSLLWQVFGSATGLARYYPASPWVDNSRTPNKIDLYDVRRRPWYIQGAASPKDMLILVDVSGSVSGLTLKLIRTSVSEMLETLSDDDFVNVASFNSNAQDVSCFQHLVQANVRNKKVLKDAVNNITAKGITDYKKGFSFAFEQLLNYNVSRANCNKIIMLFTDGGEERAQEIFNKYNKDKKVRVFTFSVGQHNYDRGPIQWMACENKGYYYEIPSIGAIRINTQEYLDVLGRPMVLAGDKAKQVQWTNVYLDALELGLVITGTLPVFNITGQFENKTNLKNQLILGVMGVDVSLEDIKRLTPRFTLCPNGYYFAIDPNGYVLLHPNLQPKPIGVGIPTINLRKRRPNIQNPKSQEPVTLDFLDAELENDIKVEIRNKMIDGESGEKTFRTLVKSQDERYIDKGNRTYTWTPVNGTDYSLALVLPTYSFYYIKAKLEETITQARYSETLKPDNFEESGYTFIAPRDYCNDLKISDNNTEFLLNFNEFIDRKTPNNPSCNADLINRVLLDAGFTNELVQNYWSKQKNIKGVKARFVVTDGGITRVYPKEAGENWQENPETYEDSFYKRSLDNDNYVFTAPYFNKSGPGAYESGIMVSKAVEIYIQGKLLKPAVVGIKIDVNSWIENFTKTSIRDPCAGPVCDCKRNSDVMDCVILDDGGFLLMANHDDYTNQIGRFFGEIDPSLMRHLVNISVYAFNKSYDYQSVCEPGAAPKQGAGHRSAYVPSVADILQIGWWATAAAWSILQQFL
Chain of N-type calcium channel (α1B (Cav2.2), β3 and α2δ subunits) (P54289 947-1103 partner limits assumed): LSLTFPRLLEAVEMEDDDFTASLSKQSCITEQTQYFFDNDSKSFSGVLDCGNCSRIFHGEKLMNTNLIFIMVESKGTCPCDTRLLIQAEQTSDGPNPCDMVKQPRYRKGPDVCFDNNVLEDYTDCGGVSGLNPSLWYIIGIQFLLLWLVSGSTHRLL

What is called IC50 is the concentration needed to halve the response being measured. Regarding `CCc1ccccc1-n1nc2c(c1-c1ccc(Cl)cc1)CC(/C=N\C(=O)OC(C)(C)C)C2` (racemic) [Compound 15, tert-butyl{[3-(4-chlorophenyl)-2-(2-ethylphenyl)-2,4,5,6-tetrahydrocyclopenta[c]pyrazol-5-yl]methylidene}carbamate], the IC50 came to 300 nM.
The same measure, in the same setting: to `COc1ccccc1-n1nc2c(c1-c1ccc(Cl)cc1)CC(CCO)C2` (centres unmarked) [Compound 1, 2-[3-(4-chlorophenyl)-2-(2-methoxyphenyl)-2,4,5,6-tetrahydrocyclopenta[c]pyrazol-5-yl]ethanol] belongs 200 nM.
The inhibition is the change of the read-out against control, counted positive when it falls. `C=CCC1Cc2nn(-c3ccccc3OC)c(-c3ccc(Cl)cc3)c2C1` (centres unmarked) [Compound 4, 3-(4-chlorophenyl)-2-(2-methoxyphenyl)-5-prop-2-en-1-yl-2,4,5,6-tetrahydrocyclopenta[c]pyrazole]: the inhibition at 1 µM is 81%.
On to `COc1ccccc1-n1nc2c(c1-c1ccc(Cl)cc1)CC(C(N)=O)C2` (centres unmarked) [Compound 6, 3-(4-chlorophenyl)-2-(2-methoxyphenyl)-2,4,5,6-tetrahydrocyclopenta[c]pyrazole-5-carboxamide], for which the inhibition at 0.33 µM came out at 75% and the half-maximal inhibitory concentration (IC50) was 490 nM.
As for `COc1ccccc1-n1nc2c(c1-c1ccccc1)CC(CNS(C)(=O)=O)C2` (centres unmarked) [Compound 7, N-{[2-(2-methoxyphenyl)-3-phenyl-2,4,5,6-tetrahydrocyclopenta[c]pyrazol-5-yl]methyl}methanesulfonamide], the inhibition at 0.33 µM came out at 68%.
Regarding `COc1ccccc1-n1nc2c(c1-c1ccccc1)CC(C#N)C2` (centres unmarked) [Compound 9, 2-(2-methoxyphenyl)-3-phenyl-2,4,5,6-tetrahydrocyclopenta[c]pyrazole-5-carbonitrile], the inhibition at 0.33 µM is 59%.
For the compound `COc1ccccc1-n1nc2c(c1-c1ccc(Cl)cc1)CC(C#N)C2` (centres unmarked) [Compound 10, 3-(4-chlorophenyl)-2-(2-methoxyphenyl)-2,4,5,6-tetrahydrocyclopenta[c]pyrazole-5-carbonitrile], the inhibition at 0.33 µM is 83% and the IC50 was determined as 300 nM.
`CCOC(=O)C1Cc2nn(-c3ccccc3CC)c(-c3ccc(Cl)cc3)c2C1` (centres unmarked) [Compound 14, ethyl 3-(4-chlorophenyl)-2-(2-ethylphenyl)-2,4,5,6-tetrahydrocyclopenta[c]pyrazole-5-carboxylate]: the IC50 was determined as 90 nM.
Turning to `CCc1ccccc1-n1nc2c(c1-c1ccc(Cl)cc1)CC(COC(=O)N(CC)CC)C2` (centres unmarked) [Compound 17, [3-(4-chlorophenyl)-2-(2-ethylphenyl)-2,4,5,6-tetrahydrocyclopenta[c]pyrazol-5-yl]methyl diethylcarbamate], the IC50 was determined as 180 nM.
In the case of `CCc1ccccc1-n1nc2c(c1-c1ccc(Cl)cc1)CC(CNS(C)(=O)=O)C2` (centres unmarked) [Compound 18, N-{[3-(4-chlorophenyl)-2-(2-ethylphenyl)-2,4,5,6-tetrahydrocyclopenta[c]pyrazol-5-yl]methyl}methanesulfonamide], the IC50 turned out to be 200 nM.
As for `CCc1ccccc1-n1nc2c(c1-c1ccc(Cl)cc1)CC(CNC(=O)C(F)(F)F)C2` (centres unmarked) [Compound 19, N-{[3-(4-chlorophenyl)-2-(2-ethylphenyl)-2,4,5,6-tetrahydrocyclopenta[c]pyrazol-5-yl]methyl}-2,2,2-trifluoroacetamide], the concentration for half-maximal inhibition (IC50) is 130 nM.
Turning to `CC(C)(C)OC(=O)NCCC1Cc2nn(-c3ccccc3C(F)(F)F)c(-c3ccc(Cl)cc3)c2C1` (centres unmarked) [Compound 20, tert-butyl(2-{3-(4-chlorophenyl)-2-[2-(trifluoromethyl)phenyl]-2,4,5,6-tetrahydrocyclopenta[c]pyrazol-5-yl}ethyl)carbamate], the IC50 was determined as 260 nM.
As for `CS(=O)(=O)NCCC1Cc2nn(-c3ccccc3C(F)(F)F)c(-c3ccc(Cl)cc3)c2C1` (centres unmarked) [Compound 21, N-(2-{3-(4-chlorophenyl)-2-[2-(trifluoromethyl)phenyl]-2,4,5,6-tetrahydrocyclopenta[c]pyrazol-5-yl}ethyl)methanesulfonamide], the inhibition at 1 µM is 65%.
In the case of `CN(C)C(=O)NCCC1Cc2nn(-c3ccccc3C(F)(F)F)c(-c3ccc(Cl)cc3)c2C1` (centres unmarked) [Compound 22, 3-(2-{3-(4-chlorophenyl)-2-[2-(trifluoromethyl)phenyl]-2,4,5,6-tetrahydrocyclopenta[c]pyrazol-5-yl}ethyl)-1,1-dimethylurea], the half-maximal inhibitory concentration (IC50) turned out to be 220 nM.
For the compound `CN(C)C(=O)OC1Cc2nn(-c3ccccc3OC(F)(F)F)c(-c3ccc(Cl)cc3)c2C1` (centres unmarked) [Compound 23, 3-(4-chlorophenyl)-2-[2-(trifluoromethoxy)phenyl]-2,4,5,6-tetrahydrocyclopenta[c]pyrazol-5-yl dimethylcarbamate], the IC50 amounted to 140 nM.
Same read-out and setting: as for `O=C(OC1Cc2nn(-c3ccccc3OC(F)(F)F)c(-c3ccc(Cl)cc3)c2C1)N1CCOCC1` (centres unmarked) [Compound 24, 3-(4-chlorophenyl)-2-[2-(trifluoromethoxy)phenyl]-2,4,5,6-tetrahydrocyclopenta[c]pyrazol-5-ylmorpholine-4-carboxylate], the figure is 150 nM.
For `OC1Cc2nn(-c3ccccc3OC(F)(F)F)c(-c3ccc(Cl)cc3)c2C1` (centres unmarked) [Compound 25, 3-(4-chlorophenyl)-2-[2-(trifluoromethoxy)phenyl]-2,4,5,6-tetrahydrocyclopenta[c]pyrazol-5-ol], the inhibition at 1 µM stood at 61%.
For `COc1ccccc1-n1nc2c(c1-c1ccc(Cl)cc1)CC(O)C2` (centres unmarked) [Compound 26, 3-(4-chlorophenyl)-2-(2-methoxyphenyl)-2,4,5,6-tetrahydrocyclopenta[c]pyrazol-5-ol], the inhibition at 1 µM is 62%.
For `COc1ccccc1-n1nc2c(c1-c1ccc(Cl)cc1)CC(=O)C2` [Compound 35, 3-(4-chlorophenyl)-2-(2-methoxyphenyl)-2,6-dihydrocyclopenta[c]pyrazol-5(4H)-one], the half-inhibitory concentration (IC50) stood at 59 nM.
Regarding `CCOc1ccccc1-n1nc2c(c1-c1ccc(Cl)cc1)CC(N1CCCC1=O)C2` (centres unmarked) [Compound 40, 1-[3-(4-chlorophenyl)-2-(2-ethoxyphenyl)-2,4,5,6-tetrahydrocyclopenta[c]pyrazol-5-yl]pyrrolidin-2-one], the 50% inhibitory concentration (IC50) amounted to 19 nM.
In the case of `COc1ccccc1-n1nc2c(c1-c1ccc(Cl)cc1)C[C@@H](OC)C2` [Compound 49, (5R)-3-(4-chlorophenyl)-5-methoxy-2-(2-methoxyphenyl)-2,4,5,6-tetrahydrocyclopenta[c]pyrazole], the inhibition at 0.33 µM was found to be 76% and the IC50 is 52 nM.
For the compound `COc1cc(Cl)ccc1-n1nc2c(c1-c1ccc(Cl)cc1)CC1(C2)OCCCO1` [Compound 52, 2-(4-Chloro-2-methoxyphenyl)-3-(4-chlorophenyl)-2,6-dihydro-4H-spiro[cyclopenta[c]pyrazole-5,2′-[1,3]dioxane]], the inhibition at 0.33 µM came to 64% and the IC50 worked out at 130 nM.
For `COc1ccccc1-n1nc2c(c1-c1ccc(Cl)cc1)C/C(=N/O)C2` [Compound 53, (5Z)-3-(4-chlorophenyl)-2-(2-methoxyphenyl)-2,6-dihydrocyclopenta[c]pyrazol-5(4H)-one oxime], the inhibition at 0.33 µM worked out at 31%.
Regarding `COc1ccccc1-n1nc2c(c1-c1ccc(Cl)cc1)C[C@H](Oc1ccccc1)C2` [Compound 58, (5S)-3-(4-chlorophenyl)-2-(2-methoxyphenyl)-5-phenoxy-2,4,5,6-tetrahydrocyclopenta[c]pyrazole], the inhibition at 0.33 µM came out at 65% and the concentration for half-maximal inhibition (IC50) came out at 130 nM.
Regarding `COc1ccccc1-n1nc2c(c1-c1ccc(Cl)cc1)C[C@H](Oc1cccnc1)C2` [Compound 59, (5S)-3-(4-chlorophenyl)-2-(2-methoxyphenyl)-5-(pyridin-3-yloxy)-2,4,5,6-tetrahydrocyclopenta[c]pyrazole], the inhibition at 0.33 µM amounted to 76% and the half-inhibitory concentration (IC50) was determined as 94 nM.
As for `COc1ccccc1-n1nc2c(c1-c1ccc(Cl)cc1)CC(c1ccc(OC(C)C)nc1)C2` (centres unmarked) [Compound 60, 3-(4-chlorophenyl)-2-(2-methoxyphenyl)-5-[6-(1-methylethoxy)pyridin-3-yl]-2,4,5,6-tetrahydrocyclopenta[c]pyrazole], the inhibition at 0.33 µM turned out to be 62% and the IC50 was found to be 280 nM.
For `COc1ccccc1-n1nc2c(c1-c1ccc(Cl)cc1)C[C@@H](Oc1ccccn1)C2` [Compound 61, (5R)-3-(4-chlorophenyl)-2-(2-methoxyphenyl)-5-(pyridin-2-yloxy)-2,4,5,6-tetrahydrocyclopenta[c]pyrazole], the inhibition at 0.33 µM came out at 77% and the half-inhibitory concentration (IC50) stood at 98 nM.
